The source of these data is patent US8658652B2, “Antifolate combinations” (Chelsea Therapeutics, Inc., priority 2010, dated 2014).

Common to all, as to assay type: in vivo
The subject of test [1] is developing type II collagen arthritis in rats. The experiment in a line: Knee histopathology in 17 day rat developing type II collagen arthritis test. To be noted: 0.2 mg/kg MTX 2X/week PO (Group 6); vs vehicle controls.
The test system is the same in test [2]. The experiment in a line: Overall effect on developing arthritis parameters, rat type II collagen arthritis. The conditions noted are these: for Effect on arthritis parameters: alone. An excerpt: (§1) Female Lewis rats (n=74) weighing 140-161 grams (mean approximate weight=148 g) on day 0 of the study were obtained from Charles River Laboratories, Inc., Wilmington, Mass. Animals were identified by a distinct number delineating group and animal number. After randomization, all cages were labeled with protocol number, group number, and animal number with appropriate color-coding.
(§2) Animals were anesthetized with Isoflurane and received subcutaneous/intradermal (SC/ID) injections with […] of Freund's Incomplete Adjuvant (Difco, Detroit, Mich.) containing 2 mg/ml bovine type II collagen (Elastin Products, Owensville, Mo.) at the base of the tail and two sites on the back on days 0 and 6. Dosing was initiated on day 0 of the study (prior to boosting procedures) and continued daily (QD at 24 hour intervals) through day 16. Animals were terminated on day 17. The experimental groups were as follows in Table 1, wherein “CH vehicle” means the vehicle used to deliver the compound CH-4051 without the inclusion of the active compound, and “MTX vehicle” means the vehicle used to deliver methotrexate without the inclusion of the active compound. The terms “QD” and “PO” have the standard meanings in the art—i.e., “once daily” and “by mouth”, respectively.
(§3) Clinical data for ankle joint diameter were analyzed by determining the area under the curve (AUC). For calculation of AUC, the daily measurement of ankle joints (using a caliper) for each rat were entered into a spreadsheet, and the area between the treatment days after the onset of disease to the termination day was computed. Means for each group were determined and % inhibition from arthritis controls was calculated by comparing values for treated and […] animals. Data were analyzed using a Student's t-test or Mann-Whitney U test (non-parametric). If applicable, data were analyzed again, across all groups, using a one-way analysis of variance (1-way ANOVA) or Kruskal-Wallis test (non-parametric), along with the appropriate multiple comparison post-test. ANOVA was performed using Prism 5.0c software (GraphPad Software, Inc.). Significance for all tests was set at p<0.05. Percent inhibition was calculated using the following formula: […]. The results of the testing are described below in relation to the various, referenced figures. In all cases, n=4 for Normal Controls, and n=10 for the treatment group.

Test [3] has the same test system. The experiment in a line: Ankle histopathology in 17 day rat developing type II collagen arthritis test. The conditions noted are these: for Ankle histopathology, reduction of summed scores: vs vehicle treated disease controls.
Source text: as §1, §2
(§4) After final body weight measurement on day 17, animals were anesthetized for terminal serum collection (retained), and then euthanized for tissue collection. Hind paws were transected at the level of the medial and lateral malleolus, weighed, and were placed in formalin with knees for potential microscopy. Livers, spleen, and thymus were removed, trimmed, weighed, and discarded.
(§5) Preserved and decalcified (5% formic acid) ankle and knee joints were cut in half longitudinally (ankles) or in the frontal plane (knees), processed through graded alcohols and a clearing agent, infiltrated and embedded in paraffin, sectioned, and stained with Toluidine Blue (T. blue) by Bolder BioPATH, Inc. associated personnel (HistoTox Labs, Inc.). Tissues from all animals were examined microscopically by a board certified veterinary pathologist, and observations were entered into a computer-assisted data retrieval system.
as §3

The nature of test [4]: Body weight gain in 17 day rat developing type II collagen arthritis test. The conditions noted are these: vs vehicle treated disease controls.
Source text: as §1
Animals were anesthetized with Isoflurane and received subcutaneous/intradermal (SC/ID) injections with […] of Freund's Incomplete Adjuvant (Difco, Detroit, Mich.) containing 2 mg/ml bovine type II collagen (Elastin Products, Owensville, Mo.) at the base of the tail and two sites on the back on days 0 and 6. Dosing was initiated on day 0 of the study (prior to boosting procedures) and continued daily (QD at 24 hour intervals) through day 16. Animals were terminated on day 17. […]
Clinical data for ankle joint diameter were analyzed by determining the area under the curve (AUC). […] Means for each group were determined and % inhibition from arthritis controls was calculated by comparing values for treated and […] animals. Data were analyzed using a Student's t-test or Mann-Whitney U test (non-parametric). If applicable, data were analyzed again, across all groups, using a one-way analysis of variance (1-way ANOVA) or Kruskal-Wallis test (non-parametric), along with the appropriate multiple comparison post-test. […]

Test [5] concerns developing type II collagen arthritis in rats. The experiment in a line: Knee histopathology in 17 day rat developing type II collagen arthritis test.
Source text: as §1, §2, §4, §5, §3

Test [6] has the same test system. Kind of test: Ankle diameter (caliper) in 17 day rat developing type II collagen arthritis test. The conditions noted are these: for Daily ankle diameter reduced toward normal, days of significance: vs vehicle controls; for Ankle diameter AUC reduction toward normal: vs vehicle treated disease controls.
Source text: as §1, §2
Rats were weighed on days 0, 3, 6, and 9-17 of the study, and caliper measurements of ankles were taken every day beginning on day 9 (or day 0 of arthritis). Ankle caliper measurements were made with Digitrix II micrometer (Fowler & NSK). Baseline measurements were taken using one ankle with values rounded to one-thousandth of an inch. Measurements were confirmed as clinically normal (0.260-0.264 inches) by comparison with historical values for rats based on a range of body weights. Baseline measurements were then applied to both ankles, and these values remained with the animal so long as the ankle was clinically normal with good definition of all the ankle bones and no evidence of inflammation.
Clinical data for ankle joint diameter were analyzed by determining the area under the curve (AUC). […] Means for each group were determined and % inhibition from arthritis controls was calculated by comparing values for treated and […] animals. Data were analyzed using a Student's t-test or Mann-Whitney U test (non-parametric). If applicable, data were analyzed again, across all groups, using a one-way analysis of variance (1-way ANOVA) or Kruskal-Wallis test (non-parametric), along with the appropriate multiple comparison post-test. […] Percent inhibition was calculated using the following formula: % Change=B/A×100, wherein A is the mean normal (mean disease control), and B is the mean treated (mean disease control). […]

Setting [7] is: 0.1 mg/kg methotrexate alone (Group 3), FIG. 10.
Setting [8] is: 0.2 mg/kg methotrexate alone (Group 6), FIG. 13.
[9] abbreviates: 0.2 mg/kg MTX 2X/week PO (Group 6).
The mark [10] stands for this setting: 0.1 mg/kg methotrexate alone (Group 3), FIG. 18.
Setting [11] is: 2.5 mg/kg CH-4051 alone (Group 4), FIG. 11.
Where [12] appears, read: 5 mg/kg CH-4051 alone (Group 7), FIG. 14.
Where [13] appears, read: 5 mg/kg CH-4051 daily PO (Group 7).
Setting [14] is: 2.5 mg/kg CH-4051 alone (Group 4), FIG. 19.

Regarding `CN(Cc1cnc2nc(N)nc(N)c2n1)c1ccc(C(=O)N[C@@H](CCC(=O)O)C(=O)O)cc1` [MTX, methotrexate], in test [1], the “Knee bone resorption score reduction” value worked out at 95%, the “Knee cartilage damage score reduction” value is 91% and the “Knee pannus score reduction” value was 91%. Moreover, the “Effect on developing arthritis parameters” value in test [2] (0.1 mg/kg MTX (dosed 2 times per week)) is reported as “only minimal, non-significant effects”. Moreover, the “Effect on arthritis parameters” value in test [2] (0.2 mg/kg MTX twice weekly) was “good inhibition of all arthritis parameters”. For the same compound, the “Ankle histopathology, reduction of summed scores” value in test [3] (0.1 mg/kg MTX—Group 6 (so in the source)) is recorded as 59%. Moreover, in test [3] (setting [7]), the “Ankle cartilage damage, photomicrograph of approximate mean summed score” value (shortened to “Ankle cartilage damage, photomicrograph”) was “mild”; the “Ankle inflammation, photomicrograph of approximate mean summed score” value (“Ankle inflammation, photomicrograph” for short) is “marked”; the “Ankle pannus, photomicrograph of approximate mean summed score” value (“Ankle pannus, photomicrograph” below) is listed as “minimal”. In addition, in test [3] (setting [8]), the “Ankle cartilage damage, photomicrograph” value is listed as “minimal”; the “Ankle inflammation, photomicrograph” value is listed as “mild”; the “Ankle pannus, photomicrograph” value was “minimal”. Also, in test [4] (setting [9]), the “Body weight gain increase toward normal” value is reported as 68%. In test [5] (setting [10]), the “Knee bone resorption, photomicrograph of highest summed score in group” value is on record as “bone resorption”; the “Knee cartilage damage, photomicrograph of highest summed score in group” value is reported as “mild”; the “Knee inflammation, photomicrograph of highest summed score in group” value (“Knee inflammation, photomicrograph” for short) is “severe”; the “Knee pannus, photomicrograph of highest summed score in group” value is “mild”. In addition, the “Knee inflammation, photomicrograph” value in test [5] (0.2 mg/kg methotrexate alone (Group 6), FIG. 21) is “mild”. The “Daily ankle diameter reduced toward normal, days of significance” value in test [6] (0.1 mg/kg MTX 2X/week PO (Group 3)) is reported as “significant at day 11”. Further, the “Ankle diameter AUC reduction toward normal” value in test [6] (setting [9]) is recorded as 72%.
Consider `C=C(C[C@H](NC(=O)c1ccc(CCc2ccc3nc(N)nc(N)c3c2)cc1)C(=O)O)C(=O)O` [CH-4051, (S)-2-{4-[2-(2,4-diamino-quinazolin-6-yl)-ethyl]-benzoylamino}-4-methylene-pentanedioic acid], for which the “Effect on developing arthritis parameters” value in test [2] (2.5 mg/kg CH-4051 (daily doses)) is listed as “only minimal, non-significant effects”. Also, the “Effect on arthritis parameters” value in test [2] (5 mg/kg CH-4051 per day) is on record as “good inhibition of all arthritis parameters”. In addition, in test [3] (setting [11]), the “Ankle cartilage damage, photomicrograph” value was “mild”; the “Ankle inflammation, photomicrograph” value was “marked”; the “Ankle pannus, photomicrograph” value is “mild”. In test [3] (setting [12]), the “Ankle cartilage damage, photomicrograph” value was “minimal”; the “Ankle inflammation, photomicrograph” value was “mild”; the “Ankle pannus, photomicrograph” value was “minimal”. The “Ankle histopathology, reduction of summed scores” value in test [3] (setting [13]) is 75%. Moreover, the “Body weight gain increase toward normal” value in test [4] (setting [13]) is on record as 84%. In test [5] (setting [14]), the “Knee bone resorption, photomicrograph of highest summed score in group” value is “bone resorption”; the “Knee cartilage damage, photomicrograph of highest summed score in group” value is “moderate”; the “Knee inflammation, photomicrograph” value is listed as “severe”; the “Knee pannus, photomicrograph of highest summed score in group” value was “mild”. The “Knee inflammation, photomicrograph” value in test [5] (5 mg/kg CH-4051 alone (Group 7), FIG. 22) is reported as “mild”. Further, the “Knee histopathology, reduction of summed scores” value in test [5] (5 mg/kg CH-4051 daily PO (Group 7), vs vehicle treated disease controls) was 92%. In addition, in test [6] (setting [13]), the “Daily ankle diameter reduced toward normal, days of significance” value is on record as “significant at days 10-17” and the “Ankle diameter AUC reduction toward normal” value is given as 81%.
